In general, IC50 refers to the point on the concentration scale where inhibition reaches its midpoint.

One data set concerns the target uPA.
Assay: not given
Also noted: method as in PMID 8495419. Particulars: cited from earlier work.
As for `N=C(N)c1cc2c(I)cccc2s1` [B428], the Ki is 0.53 µM.

In a further data set the target is urokinase (uPA) (Homo sapiens, UniProt P00749). The data set is described as follows: urokinase inhibition testing in vitro, chromogenic substrate S-2444, optical density at 405 nm. It counts as biochemical. Particulars: ordered compounds, Table 7; read-out: Experiment, uPA inhibition activity (IC50). The method, then:
After selection of the most promising candidates for new urokinase inhibitors, we tested their inhibition activities in vitro. The experiments were carried out on the system with the urokinase specimen, the tested ligand, and the special substrate—a synthetic Pyro-Glu-Gly-Arg-pNA peptide (S-2444). Urokinase decomposes the substrate with production of the chromogenic product. When the inhibitor binds to the urokinase active site, this production is slowed down. The higher the inhibition activity of the ligand, the slower the working of urokinase and the slower the accumulation of chromogenic product. Thus, the inhibitory activity can be measured by the rate of optical density change at the 405 nm wavelength. […] Error of the method for IC50 measurement in micromole range is about […].
Experimental tests were performed as indicated in paragraph 3.5 of “Methods.” Urokinase proteolytic activity in the presence of inhibitor (and also in absence of inhibitor, labeled “control” in Figure 4) was determined by releasing the paranitroanilide by means of measuring of absorption with a wave length of 405 nm each minute at 30°C. Figure 4 is a diagram of relationship between optical density and time. The angle of curve describes the reaction rate: the lower it is (compared with “control”, which corresponds to urokinase without inhibitors), the better inhibitor works.
As for `Cc1[nH]c2ccc(Oc3ccccc3)cc2c1CCN` [TRY-0074], the half-maximal inhibitory concentration (IC50) was 260 µM.

Still in this data set, the particulars now being: ordered compounds, Table S2; read-out: Experiment, uPA inhibition activity (IC50).
As to `Nc1ncc(-c2ccc(F)cc2)[nH]1` [AIM-0027], the IC50 was found to be 500 µM.

Staying with this data set, now noted: synthesized compounds, Table 8; read-out: Experiment, uPA inhibition activity (IC50).
Turning to `N=C(N)Sc1ccccn1` [U001R], the IC50 was more than 500 µM. As for `N=C(N)Sc1ccccc1` [U002R], the half-inhibitory concentration (IC50) is more than 500 µM.

Regarding `Nc1cc2ccccc2cn1` [U003P], the concentration for half-maximal inhibition (IC50) is more than 500 µM.

Consider `Nc1nc(-c2ccccc2)c[nH]1` [U005r], for which the IC50 stood at 500 µM. For `NC1=NCC(COc2ccccc2)O1` (centres unmarked) [U006R], the half-maximal inhibitory concentration (IC50) is more than 500 µM. Regarding `N=C(N)Sc1ccc(Br)cn1` [U007R], the IC50 was more than 500 µM. The same measure, in the same setting: the figure for `Nc1nc(-c2ccc3ccccc3c2)cs1` [U009T] is more than 500 µM; for `NC1=NCC(COc2c(Cl)cccc2Cl)O1` (centres unmarked) [U012T] it is more than 500 µM; for `Cc1cccc(C)c1OCC1CN=C(N)O1` (centres unmarked) [U013T] it is more than 500 µM.

Turning to `Nc1ccc2[nH]c(N)nc2c1` [U014R], the IC50 is 200 µM.

On to `Nc1nc2cc([N+](=O)[O-])ccc2[nH]1` [U014aR], for which the IC50 is more than 500 µM.

As to `Nc1nc2cc(NS(=O)(=O)c3ccccc3)ccc2[nH]1` [U015R], the IC50 is more than 500 µM. With `CC(=O)Nc1ccc2[nH]c(N)nc2c1` [U017R], the 50% inhibitory concentration (IC50) was found to be 200 µM.

Consider `COc1ccc2nc(N)[nH]c2c1` [U019R], for which the IC50 stood at 500 µM. As to `Nc1nc2cc(F)ccc2[nH]1` [U020R], the concentration for half-maximal inhibition (IC50) was 500 µM.

Regarding `N=C(N)Nc1n[nH]c2ccccc12` [U021R], the IC50 was found to be 500 µM. Turning to `N=C(N)Nc1nsc2ccccc12` [U024R, 1,2-benzisothiazol-3-yl-guanidine], the IC50 was 33 µM. In the case of `N=C(N)Nc1nsc2ccc(Br)cc12` [U026R, (5-bromo-1,2-benzisothiazol-3-yl) guanidine], the half-inhibitory concentration (IC50) was in the range of 4 to 20 µM.

Tested on in another data set: not given
Assay: not given
Also noted: method as in PMID 19200050. Particulars: cited from earlier work.
For `CCOC(=O)N1CCN(C(=O)C(Cc2cccc(C(=N)N)c2)NS(=O)(=O)c2c(C(C)C)cc(C(C)C)cc2C(C)C)CC1` (centres unmarked) [WX-UK1], the oral absorption entry was “not absorbed orally”.

The target in the next data set is human uPA.
Assay: not given
Also noted: method as in PMID 15582418, PMID 12113833, PMID 11755349, PMID 15149680, PMID 17447747. Particulars: read-out: K i against human uPA; cited from earlier work.
For the compound `CCOC(=O)N1CCN(C(=O)C(Cc2cccc(C(=N)N)c2)NS(=O)(=O)c2c(C(C)C)cc(C(C)C)cc2C(C)C)CC1` (centres unmarked) [WX-UK1], the Ki is 0.6 µM.

Values taken from paper PMC4055159, “Application of Molecular Modeling to Urokinase Inhibitors Development” (BioMed Research International, 2014).
